In ChEMBL document CHEMBL1201862, “PubChem BioAssay data set” (2004):
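A five-concentration, 48-hour dose response in 96-well plates underlies each endpoint, interpolated linearly between surrounding concentrations. Abbreviation: GI50, concentration required for 50% inhibition of growth.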 Activity calls are given as the source filed them. No stated cut-off is given here; in the data, active = GI50 up to about 1.1 µM and inactive = higher.

Legend:
Experiment in all cases: inhibition of tumour cell growth, NCI panel, 48 h
ACHN = tested on: ACHN
BT-549 = tested on: BT-549
786-0 = tested on: 786-0
KM12 = tested on: KM12
CAKI-1 = tested on: CAKI-1
OVCAR-4 = tested on: OVCAR-4
HCT-15 = tested on: HCT-15
SF-268 = tested on: SF-268
A498 = tested on: A498
NCI-H226 = tested on: NCI-H226
SF-295 = tested on: SF-295
SW-620 = tested on: SW-620
OVCAR-8 = tested on: OVCAR-8
Malme-3M = tested on: Malme-3M
SK-MEL-2 = tested on: SK-MEL-2
NCI-H460 = tested on: NCI-H460
SK-MEL-28 = tested on: SK-MEL-28
HT-29 = tested on: HT-29
K562 = tested on: K562
LOX IMVI = tested on: LOX IMVI
IGROV-1 = tested on: IGROV-1
Hs-578T = tested on: Hs-578T
MDA-N = tested on: MDA-N
HOP-92 = tested on: HOP-92
RXF 393 = tested on: RXF 393
TK-10 = tested on: TK-10
SNB-75 = tested on: SNB-75
MOLT-4 = tested on: MOLT-4
COLO 205 = tested on: COLO 205
HOP-62 = tested on: HOP-62
NCI-H23 = tested on: NCI-H23
NCI/ADR-RES = tested on: NCI/ADR-RES
HCT-116 = tested on: HCT-116
RPMI-8226 = tested on: RPMI-8226
SK-MEL-5 = tested on: SK-MEL-5
DU-145 = tested on: DU-145
A549 = tested on: A549
SNB-19 = tested on: SNB-19
UACC-62 = tested on: UACC-62
MCF7 = tested on: MCF7
U-251 = tested on: U-251
M14 = tested on: M14
MDA-MB-435 = tested on: MDA-MB-435
SK-OV-3 = tested on: SK-OV-3
NCI-H522 = tested on: NCI-H522
MDA-MB-231 = tested on: MDA-MB-231
UACC-257 = tested on: UACC-257
SF-539 = tested on: SF-539
OVCAR-5 = tested on: OVCAR-5
SN12C = tested on: SN12C
EKVX = tested on: EKVX
PC-3 = tested on: PC-3
SR = tested on: SR
T47D = tested on: T47D
OVCAR-3 = tested on: OVCAR-3
CCRF-CEM = tested on: CCRF-CEM
UO-31 = tested on: UO-31
HCC 2998 = tested on: HCC 2998
HL-60 = tested on: HL-60

## COc1ccc(C(O)c2ccccn2)cc1 (configuration not stated)
ACHN
  GI50: > 100 µM (inactive)
BT-549
  GI50: > 100 µM (inactive)
786-0
  GI50: > 100 µM (inactive)
KM12
  GI50: > 100 µM (inactive)
CAKI-1
  GI50: > 100 µM (inactive)
OVCAR-4
  GI50: > 100 µM (inactive)
HCT-15
  GI50: > 100 µM
SF-268
  GI50: > 100 µM (inactive)
A498
  GI50: > 100 µM (inactive)
NCI-H226
  GI50: > 100 µM (inactive)
SF-295
  GI50: > 100 µM (inactive)
SW-620
  GI50: > 100 µM (inactive)
OVCAR-8
  GI50: > 100 µM (inactive)
Malme-3M
  GI50: > 100 µM (inactive)
SK-MEL-2
  GI50: > 100 µM (inactive)
NCI-H460
  GI50: > 100 µM (inactive)
SK-MEL-28
  GI50: > 100 µM (inactive)
HT-29
  GI50: > 100 µM (inactive)
K562
  GI50: > 100 µM (inactive)
LOX IMVI
  GI50: > 100 µM (inactive)
IGROV-1
  GI50: > 100 µM (inactive)
Hs-578T
  GI50: > 100 µM (inactive)
MDA-N
  GI50: > 100 µM (inactive)
HOP-92
  GI50: > 100 µM (inactive)
RXF 393
  GI50: > 100 µM (inactive)
TK-10
  GI50: > 100 µM (inactive)
SNB-75
  GI50: > 100 µM (inactive)
MOLT-4
  GI50: > 100 µM (inactive)
COLO 205
  GI50: > 100 µM (inactive)
HOP-62
  GI50: > 100 µM (inactive)
NCI-H23
  GI50: > 100 µM (inactive)
NCI/ADR-RES
  GI50: > 100 µM (inactive)
HCT-116
  GI50: > 100 µM (inactive)
RPMI-8226
  GI50: > 100 µM (inactive)
SK-MEL-5
  GI50: > 100 µM (inactive)
DU-145
  GI50: > 100 µM (inactive)
A549
  GI50: > 100 µM (inactive)
SNB-19
  GI50: > 100 µM (inactive)
UACC-62
  GI50: > 100 µM (inactive)
MCF7
  GI50: > 100 µM (inactive)
U-251
  GI50: > 100 µM (inactive)
M14
  GI50: > 100 µM (inactive)
MDA-MB-435
  GI50: > 100 µM (inactive)
SK-OV-3
  GI50: > 100 µM (inactive)
NCI-H522
  GI50: > 100 µM (inactive)
MDA-MB-231
  GI50: > 100 µM (inactive)
UACC-257
  GI50: > 100 µM (inactive)
SF-539
  GI50: > 100 µM (inactive)
OVCAR-5
  GI50: > 100 µM (inactive)
SN12C
  GI50: > 100 µM (inactive)
EKVX
  GI50: > 100 µM (inactive)
PC-3
  GI50: > 100 µM (inactive)
SR
  GI50: > 100 µM (inactive)
T47D
  GI50: > 100 µM (inactive)
OVCAR-3
  GI50: > 100 µM (inactive)

## CC1=CC(=O)/C(=C/NC(=S)C(N)=S)C(=O)O1
ACHN
  GI50: > 100 µM (inactive)
BT-549
  GI50: > 100 µM (inactive)
786-0
  GI50: > 100 µM (inactive)
KM12
  GI50: > 100 µM (inactive)
CCRF-CEM
  GI50: 44 µM (inactive)
CAKI-1
  GI50: > 100 µM (inactive)
OVCAR-4
  GI50: > 100 µM (inactive)
HCT-15
  GI50: > 100 µM
SF-268
  GI50: > 100 µM (inactive)
NCI-H226
  GI50: > 100 µM (inactive)
SF-295
  GI50: > 100 µM (inactive)
SW-620
  GI50: > 100 µM (inactive)
OVCAR-8
  GI50: > 100 µM (inactive)
SK-MEL-2
  GI50: > 100 µM (inactive)
UO-31
  GI50: > 100 µM (inactive)
NCI-H460
  GI50: > 100 µM (inactive)
SK-MEL-28
  GI50: > 100 µM (inactive)
HT-29
  GI50: > 100 µM (inactive)
K562
  GI50: > 100 µM (inactive)
LOX IMVI
  GI50: > 100 µM (inactive)
IGROV-1
  GI50: > 100 µM (inactive)
Hs-578T
  GI50: > 100 µM (inactive)
MDA-N
  GI50: > 100 µM (inactive)
HOP-92
  GI50: > 100 µM (inactive)
RXF 393
  GI50: > 100 µM (inactive)
TK-10
  GI50: > 100 µM (inactive)
SNB-75
  GI50: 19 µM (inactive)
MOLT-4
  GI50: 16 µM (inactive)
COLO 205
  GI50: > 100 µM (inactive)
HOP-62
  GI50: > 100 µM (inactive)
NCI-H23
  GI50: > 100 µM (inactive)
NCI/ADR-RES
  GI50: > 100 µM (inactive)
HCT-116
  GI50: > 100 µM (inactive)
RPMI-8226
  GI50: > 100 µM (inactive)
HCC 2998
  GI50: > 100 µM (inactive)
SK-MEL-5
  GI50: > 100 µM (inactive)
DU-145
  GI50: > 100 µM (inactive)
A549
  GI50: > 100 µM (inactive)
SNB-19
  GI50: > 100 µM (inactive)
HL-60
  GI50: 47.5 µM (inactive)
UACC-62
  GI50: > 100 µM (inactive)
MCF7
  GI50: > 100 µM (inactive)
U-251
  GI50: > 100 µM (inactive)
M14
  GI50: > 100 µM (inactive)
MDA-MB-435
  GI50: > 100 µM (inactive)
SK-OV-3
  GI50: > 100 µM (inactive)
NCI-H522
  GI50: > 100 µM (inactive)
MDA-MB-231
  GI50: > 100 µM (inactive)
UACC-257
  GI50: > 100 µM (inactive)
SF-539
  GI50: > 100 µM (inactive)
OVCAR-5
  GI50: > 100 µM (inactive)
SN12C
  GI50: > 100 µM (inactive)
EKVX
  GI50: > 100 µM (inactive)
PC-3
  GI50: > 100 µM (inactive)
SR
  GI50: 47.2 µM (inactive)
T47D
  GI50: > 100 µM (inactive)
OVCAR-3
  GI50: > 100 µM (inactive)
